Entries after “also recorded” stand apart in the source; their conditions may differ.
What was measured:
CD-1 male mice = test: LPS fever induction antipyresis assay; type: in vivo, mouse; conditions: LPS 100 μg/kg ip, drug 75 mg/kg po, 2 h post drug
Experimental: Antipyresis experiments were carried out with n=60 CD-1 male mice weighing between 45-50 g. All mice were kept in a 12-h day/12-h night cycle with free access to food and water ad libitum. After habituating and acclimating the mice for a week, each mouse was briefly anesthetized for 1 min with 1% isoflurane and implanted subcutaneously a transmitter probe that records core body temperature—Implantable Programmable Temperature Transponder (IPTT-300) by Bio Medic Data Systems (BMDS), DE, USA. The mice were allowed to recover for at least one week from the surgery before any recordings were made and observed in their home cages prior to pyrogen challenge for inducing fever. Temperatures were recorded using the BMDS DAS-8027-IUS data reading system.
All mice were fasted overnight (15 h) with free access to water ad libitum prior to the pyrogen challenge. For the induction of fever, LPS from E. coli (100 μg/kg, 0111:B4) (MilliporeSigma, Billerica, MA, USA) was used. Mice received either LPS in 0.9% saline (sterile) (vehicle) or just 0.9% saline as an intraperitoneal (ip) injection.
Drug injection/concentration: All drugs and vehicle (10% DMSO: 10% labrasol:80% PEG400) were administered by oral gavage, PO dosing. Each dosing volume was ˜0.3-0.4 mL per mouse. […] We chose this dose to record antipyretic effect in a low dose that doesn't cause hypothermia in mice.

[1] = system: midbrain periaqueductal gray (PAG) cells; test: Single-cell RNA sequencing of midbrain PAG in CFA-induced chronic inflammatory pain model; type: in vivo, rat; conditions: CFA rats; for expression of FAAH, CORO2A and RPL7L1 (scRNAseq): 100 mg/kg, 1 h
Experimental: Subsequently, we endeavored to explore the single-cell transcriptome of the eVF rat mid-brain PAG region to further define the mechanisms of action (MOA) of chronic inflammatory pain and, ultimately, SRP-001- and ApAP-mediated pain modulation. Left hind paws of Sprague Dawley rats were injected with 150 μl of 50% complete Freund's adjuvant (CFA), freshly diluted with sterile saline on the day of administration, to induce conspicuous long-standing inflammatory pain in the rats' hind paws, along with mechanical hyperalgesia tested using eVF. […].
Single-cell (scRNA) RNA sequencing. For cell nuclei isolation from the midbrain PAG, they were flash-frozen, dissected (by a cryotome), minced into small pieces, homogenized, filtered through 70 strainer and centrifuged. ReadiDrop 7-AAD cell viability dye (Bio-Rad) added, and flow sorted the live ([…]) nuclei in a BioRad Cell Sorter S3e using purity mode. Nuclei were counted using Nexcelom automated Cellometer with acridine orange/propidium iodide (AOPI) stain, and the Nuclei Stock Concentration used so that 10,000 nuclei could be targeted for each sample. […] Post library construction QC was performed using Agilent Bioanalyzer 2100 on High Sensitivity DNA chips, and after verification of sample traces, each library normalized based on the average fragment size, and the concentration determined using Qubit 4.0 fluorometer (Thermo Fisher Scientific). […]
Data processing. […] Read alignment, filtering, barcode counting, peak calling, and counting of both ATAC and GEX molecules were performed using cellranger-arc count. […] Only confidently mapped reads with valid barcodes, unique molecular identifiers (UMIs), and non-PCR duplicated were retained. The overall sequencing quality was evaluated by looking at the summary metrics of the web_summary.html file generated for each sample. […]

AM404 = test: LC-MS/MS quantification of AM404 production in periaqueductal gray; type: in vivo; conditions: rat, 32 mg/kg IP, 30 min, with CFA or vehicle
Experimental: Deuterated compound D10-SRP-001 was synthesized by Olon Ricerca Bioscience (Concord, OH), and purity was determined to be >99.9% by HPLC. This was used as pure analytical standard for detection of SRP-001 using an LC-MS/MS method. Similarly, pure analytical standard of AM404 (10 ng/mL) obtained from Cayman Chemical (Ann Arbor, MI) was used to characterize the full fragmentation pattern of AM404. […] Thirty min post-injection, the animals were sacrificed (same as in the CFA/von Frey model), their brains harvested, and the midbrain periaqueductal gray (PAG) region excised. SRP-001 or AM404 were extracted from the PAG using a liquid-liquid extraction method using 1:1 MeOH:H2O for LC-MS/MS and were loaded onto a liquid chromatography-tandem mass spectrophotometer for analysis. The mass spectrophotometer was operated in multiple reaction monitoring (MRM) mode using positive ion electrospray. D10-SRP-001 was detected by monitoring the m/z transition 416→186. AM404 was detected by monitoring the m/z transition 396→287.

| Compound | antipyresis (CD-1 male mice) | expression of FAAH, CORO2A and RPL7L1 (scRNAseq) [1] | AM404 production in the PAG (AM404) | regulation of FAAH signaling genes ([1]; IPA analysis) | AM404 production in the PAG (AM404; 32 mg/kg) |
| --- | --- | --- | --- | --- | --- |
| CC(=O)Nc1ccc(O)cc1 [ApAP, acetaminophen] | comparable antipyresis | Downregulation | diminished |  |  |
| CCN(CC)C(=O)c1ccccc1S(=O)(=O)NCC(=O)Nc1ccc(O)cc1 [SRP-001, N,N-diethyl-2-[[2-(4-hydroxyanilino)-2-oxo-ethyl]sulfamoyl]benzamide] | comparable antipyresis | Downregulation |  | more significantly regulated by SRP-001 than ApAP | highest AM404 production; also recorded: produces more AM404 than ApAP |
